# “And” between values parts separate entries of the source, which are not always exact repeats. Equal entries are not always repeated.
# Test system: BDF1 mice, Adenocarcinoma 755 s.c., tumor weight T/C
# Test: NCI In Vivo Anticancer Drug Screen. Data for tumor model Adenocarcinoma 755 (subcutaneous) in B6D2F1 (BDF1) mice
# Settings: endpoint: mean tumor weight, higher = larger tumour
# Method in brief: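 In vivo antitumor screen on a transplantable tumor line. Result equals the measure in compound-treated animals divided by the same measure in vehicle controls.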
# [1] = dose: 25.0 mg/kg/injection, schedule: Q01DX011 (ip), vehicle: methylcellulose (MC)
# [2] = dose: 50.0 mg/kg/injection, schedule: Q01DX011 (ip), vehicle: carboxymethylcellulose (CMC)
smiles,measurement,setting,value
C=CC(O)CN1CC1(C)C (stereo not drawn) (tested in a mixture with another compound),T/C,"dose: 1.9 mg/kg/injection, schedule: Q01DX011 (ip), vehicle: methylcellulose (MC)",99 % of control
same,T/C,"dose: 3.75 mg/kg/injection, schedule: Q01DX011 (ip), vehicle: methylcellulose (MC)",107 % of control
same,T/C,"dose: 15.0 mg/kg/injection, schedule: Q01DX011 (ip), vehicle: methylcellulose (MC)",75 % of control
O=C(Nc1ccc([N+](=O)[O-])cc1)Nc1ccc([N+](=O)[O-])cc1 (tested in a mixture with another compound),T/C,"dose: 175.0 mg/kg/injection, schedule: Q01DX011 (ip), vehicle: methylcellulose (MC)",57 % of control and 72 % of control
same,T/C,"dose: 500.0 mg/kg/injection, schedule: Q01DX011 (ip), vehicle: methylcellulose (MC)",27 % of control and 45 % of control
CC(=O)OC1(C)CC(C)C(=O)C(C(O)CC2CC(=O)NC(=O)C2)C1 (stereo not drawn),T/C,"dose: 0.2 mg/kg/injection, schedule: Q01DX006 (ip), vehicle: other",38 % of control
same,T/C,"dose: 0.5 mg/kg/injection, schedule: Q01DX006 (ip), vehicle: other",17 % of control
same,T/C,"dose: 0.5 mg/kg/injection, schedule: Q01DX006 (ip), vehicle: water",72 % of control
same,T/C,"dose: 2.0 mg/kg/injection, schedule: Q01DX006 (ip), vehicle: water",66 % of control
same,T/C,"dose: 5.0 mg/kg/injection, schedule: Q01DX006 (ip), vehicle: water",114 % of control
same,T/C,"dose: 10.0 mg/kg/injection, schedule: Q01DX006 (ip), vehicle: water",71 % of control
same,T/C,"dose: 1:500.0 dilution, schedule: Q01DX006 (ip), vehicle: water",84 % of control
same,T/C,"dose: 1:1000.0 dilution, schedule: Q01DX006 (ip), vehicle: water",115 % of control
same,T/C,"dose: 1:2000.0 dilution, schedule: Q01DX006 (ip), vehicle: water",105 % of control and 83 % of control
same,T/C,"dose: 1:20000.0 dilution, schedule: Q01DX006 (ip), vehicle: water",39 % of control
same,T/C,"dose: 1:100000.0 dilution, schedule: Q01DX006 (ip), vehicle: water",101 % of control
Clc1ncnc2c1ncn2C1CCCS1 (stereo not drawn),T/C,[1],107 % of control
Ic1ncnc2c1ncn2C1CCCO1 (stereo not drawn),T/C,[2],94 % of control
same,T/C,"dose: 100.0 mg/kg/injection, schedule: Q01DX011 (ip), vehicle: carboxymethylcellulose (CMC)",84 % of control
CC1CCc2ccccc2N1C(=O)CCCl (stereo not drawn),T/C,[1],48 % of control
same,T/C,"dose: 75.0 mg/kg/injection, schedule: Q01DX011 (ip), vehicle: methylcellulose (MC)",82 % of control
same,T/C,"dose: 225.0 mg/kg/injection, schedule: Q01DX011 (ip), vehicle: methylcellulose (MC)",50 % of control
CCC(=O)N(CC)CC,T/C,"dose: 250.0 mg/kg/injection, schedule: Q01DX011 (ip), vehicle: other",100 % of control
CC/C(=C(/CC)c1ccc(O)cc1)c1ccc(O)cc1,T/C,"dose: 40.0 mg/kg/injection, schedule: Q01DX011 (sc), vehicle: steriod suspending solution",114 % of control
same,T/C,"dose: 41.2 mg/kg/injection, schedule: Q01DX011 (sc), vehicle: steriod suspending solution",53 % of control
same,T/C,"dose: 62.5 mg/kg/injection, schedule: Q01DX011 (sc), vehicle: steriod suspending solution",41 % of control
same,T/C,"dose: 68.66 mg/kg/injection, schedule: Q01DX011 (sc), vehicle: steriod suspending solution",45 % of control
same,T/C,"dose: 80.0 mg/kg/injection, schedule: Q01DX011 (sc), vehicle: steriod suspending solution",178 % of control
same,T/C,"dose: 103.0 mg/kg/injection, schedule: Q01DX011 (sc), vehicle: steriod suspending solution",38 % of control and 44 % of control and 50 % of control
same,T/C,"dose: 125.0 mg/kg/injection, schedule: Q01DX011 (sc), vehicle: steriod suspending solution",33 % of control
same,T/C,"dose: 160.0 mg/kg/injection, schedule: Q01DX011 (sc), vehicle: steriod suspending solution",111 % of control
same,T/C,"dose: 250.0 mg/kg/injection, schedule: Q01DX011 (sc), vehicle: steriod suspending solution",48 % of control
same,T/C,"dose: 320.0 mg/kg/injection, schedule: Q01DX011 (sc), vehicle: steriod suspending solution",98 % of control
COc1cc2c(c(OC)c1OC)-c1ccc(N)c(=O)cc1[C@@H](NC(C)=O)CC2,T/C,"dose: 0.5 mg/kg/injection, schedule: Q01DX011 (ip), vehicle: saline",98 % of control
same,T/C,"dose: 2.0 mg/kg/injection, schedule: Q01DX011 (ip), vehicle: saline",32 % of control and 47 % of control
same,T/C,"dose: 4.0 mg/kg/injection, schedule: Q01DX011 (ip), vehicle: saline",15 % of control and 37 % of control
CN(C)[C@@H]1C(=O)C(C(=O)NCNCCCC(=O)O)=C(O)[C@@]2(O)C(=O)C3=C(O)c4c(O)cccc4[C@@](C)(O)[C@H]3C[C@@H]12,T/C,"dose: 87.5 mg/kg/injection, schedule: Q01DX011 (ip), vehicle: saline",106 % of control and 115 % of control
same,T/C,"dose: 175.0 mg/kg/injection, schedule: Q01DX011 (ip), vehicle: saline",54 % of control and 78 % of control
same,T/C,"dose: 350.0 mg/kg/injection, schedule: Q01DX011 (ip), vehicle: saline",51 % of control and 52 % of control
O=C(OCC1OC(n2cnc3c(=S)nc[nH]c32)C(OC(=O)c2ccc(Cl)cc2)C1OC(=O)c1ccc(Cl)cc1)c1ccc(Cl)cc1 (stereo not drawn),T/C,[2],85 % of control
same,T/C,"dose: 400.0 mg/kg/injection, schedule: Q01DX011 (ip), vehicle: carboxymethylcellulose (CMC)",1 % of control and 5 % of control
N#CCSc1nc(N)nc2nc[nH]c12,T/C,"dose: 0.5 mg/kg/injection, schedule: Q01DX011 (ip), vehicle: carboxymethylcellulose (CMC)",82 % of control
same,T/C,"dose: 1.0 mg/kg/injection, schedule: Q01DX011 (ip), vehicle: carboxymethylcellulose (CMC)",63 % of control
same,T/C,"dose: 2.0 mg/kg/injection, schedule: Q01DX011 (ip), vehicle: carboxymethylcellulose (CMC)",70 % of control
O=C(O)C(CS(=O)(=O)O)Nc1ncnc2nc[nH]c12 (stereo not drawn),T/C,"dose: 3.1 mg/kg/injection, schedule: Q01DX011 (ip), vehicle: saline",65 % of control
same,T/C,"dose: 6.2 mg/kg/injection, schedule: Q01DX011 (ip), vehicle: saline",40 % of control
same,T/C,"dose: 12.5 mg/kg/injection, schedule: Q01DX011 (ip), vehicle: saline",40 % of control and 43 % of control
same,T/C,"dose: 18.75 mg/kg/injection, schedule: Q01DX011 (ip), vehicle: saline",38 % of control
same,T/C,"dose: 25.0 mg/kg/injection, schedule: Q01DX011 (ip), vehicle: saline",10 % of control
same,T/C,"dose: 28.12 mg/kg/injection, schedule: Q01DX011 (ip), vehicle: saline",12 % of control
same,T/C,"dose: 45.0 mg/kg/injection, schedule: Q01DX011 (ip), vehicle: saline",4 % of control
same,T/C,"dose: 75.0 mg/kg/injection, schedule: Q01DX011 (ip), vehicle: saline",7 % of control
same,T/C,"dose: 225.0 mg/kg/injection, schedule: Q01DX011 (ip), vehicle: saline",7 % of control

# Source: PubChem BioAssay AID180 (DTP/NCI, 2004)
